# Laboratory results reported in US20260191998A1, “INDOLE PHTHALOCYANINE COMPOUND, PREPARATION METHOD THEREFOR, AND USE THEREOF IN TUMOR DIAGNOSIS IMAGING” (JIANGSU YAHONG MEDITECH CO., LTD., priority 2022, published 2026).
# Counter-ions that a name gives are not always drawn.
# What was measured:
# [1] = UV-VIS absorption spectra (optical property test); assay type: physicochemical; details: 10 μM, DMSO solution; for Absorbance × 10^4: at maximum absorption peak
# Experimental: The UV-VIS absorption spectra of the compounds (10 μM, DMSO solution) were detected using Shimadzu UV2600 spectrophotometer, and the maximum absorption peak and absorbance of each compound were obtained.
# [2] = tested on: human bladder cancer cell line UM-UC-3; experiment: In vitro imaging effect test with addition of BSP, UM-UC-3; assay type: cell-based; details: 250 μM BSP, compound 1-20 μM with surfactin 1:5, 30 minutes
# Experimental: UM-UC-3 (1.5×10^4/well) were cultured in EMEM medium (containing 10% fetal bovine serum (FBS) and 1% antibiotics (100 U/mL penicillin and 100 U/mL streptomycin)) and seeded in a 96-well plate in advance. The plate was cultured in a 5% CO2 cell culture incubator at 37° C. overnight. The following day, the culture medium was sucked away, and 250 μM of BSP was added to the test wells and preconditioned for 10 minutes, followed by addition of the culture medium containing an appropriate concentration (1-20 μM) of the compound and surfactin (the molar ratio of the test compound to the surfactin being 1:5) with or without 250 μM of BSP, and then incubated for 30 minutes. The cells were rinsed three times with PBS solution, and the near-infrared fluorescence intensity in the bladder cancer cells was observed using an integrated fluorescence microscopic imaging system from Keyence. The conditions for near-infrared photography were Ex=775/50 nm and Em=845/55 nm.
Compound,Absorption peak [1],Absorbance × 10^4 [1],Uptake by UM-UC-3 with or without BSP [2]
"CC[N+]1=C(/C=C/C2=C(Cl)C(=C/C=C3/N(CCCCCC(=O)Oc4ccccc4)c4ccccc4C3(C)C)/CC2)C(C)(C)c2ccccc21 [Example 4, 2-((E)-2-((E)-2-chloro-3-(2-((E)-3,3-dimethyl-1-(6-oxo-6-phenoxyhexyl)indolin-2-ylidene)ethenyl)cyclopent-1-en-1-yl)ethenyl)-1-ethyl-3,3-dimethyl-3H-indol-1-ium Chloride]",821 nm,2.36,may be weakened or enhanced by BSP
"CC[N+]1=C(/C=C/C2=C(Cl)C(=C/C=C3/N(Cc4ccc(C(=O)Oc5ccccc5)cc4)c4ccccc4C3(C)C)/CCC2)C(C)(C)c2ccccc21 [Example 6, 2-((E)-2-((E)-2-chloro-3-(2-((E)-3,3-dimethyl-1-(4-(phenoxycarbonyl)bromo)indolin-2-ylidene)ethenyl)cyclohex-1-en-1-yl)ethenyl)-1-ethyl-3,3-dimethyl-3H-indol-1-ium Chloride]",795 nm,1.8,may be weakened or enhanced by BSP
"CC[N+]1=C(/C=C/C2=C(Cl)C(=C/C=C3/N(CCCCCC(=O)Oc4ccccc4)c4ccccc4C3(C)C)/CCC2)C(C)(C)c2ccccc21 [Example 12a, 2-((E)-2-((E)-2-chloro-3-(2-((E)-3,3-dimethyl-1-(6-oxo-6-phenoxyhexyl)indolin-2-ylidene)ethenyl)cyclohex-1-en-1-yl)ethenyl)-1-ethyl-3,3-dimethyl-3H-indol-1-ium chloride, reference compound]",,,may be weakened or enhanced by BSP
CC[N+]1=C(/C=C/C2=C(Cl)C(=C/C=C3/N(CCCCCC(=O)Oc4ccccc4)c4ccc5ccccc5c4C3(C)C)/CCC2)C(C)(C)c2c1ccc1ccccc21 [Example 2],833.5 nm,2.09,may be weakened or enhanced by BSP
"CC[N+]1=C(/C=C/C2=C(Cl)C(=C/C=C3/N(CCOCCC(=O)Oc4ccccc4)c4ccccc4C3(C)C)/CCC2)C(C)(C)c2cc(C(=O)O)ccc21 [Example 117, 5-carboxy-2-((E)-2-((E)-2-chloro-3-(2-((E)-3,3-dimethyl-1-(2-(3-oxo-3-phenoxypropoxy)ethyl)indolin-2-ylidene)ethenyl)cyclohex-1-en-1-yl)ethenyl)-1-ethyl-3,3-dimethyl-3H-indol-1-ium 2,2,2-trifluoroacetate]",,1.36,
"CC[N+]1=C(/C=C/C2=C(Cl)C(=C/C=C3/N(CCOCCCCC(=O)Oc4ccccc4)c4ccccc4C3(C)C)/CCC2)C(C)(C)c2ccccc21 [Example 37A, 2-((E)-2-((E)-2-chloro-3-(2-((E)-3,3-dimethyl-1-(2-((5-oxo-5-phenoxypentyl)oxy)ethyl)indolin-2-ylidene)ethenyl)cyclohex-1-en-1-yl)ethenyl)-1-ethyl-3,3-dimethyl-3H-indol-1-ium 2,2,2-trifluoroacetate]",794.5 nm,2.118,
CC[N+]1=C(/C=C/C2=C(Cl)C(=C/C=C3/N(Cc4ccc(C(=O)Oc5ccccc5)cc4)c4ccc5ccccc5c4C3(C)C)/CCC2)C(C)(C)c2c1ccc1ccccc21 [Example 3],835 nm,1.88,
"2-((E)-2-((E)-2-chloro-3-(2-((E)-3,3-dimethyl-1-(2-((5-oxo-5-phenoxypentyl)oxy)ethyl) indolin-2-ylidene)ethenyl)cyclohex-1-en-1-yl)ethenyl)-3,3-dimethyl-1-(2-((5-oxo-5-phenoxypentyl)oxy)ethyl)-3H-indol-1-ium [Example 37B]",801 nm,1.563,
"CC1(C)C(/C=C/C2=C(Cl)C(=C/C=C3/N(CCCCCC(=O)Oc4ccccc4)c4ccccc4C3(C)C)/CCC2)=[N+](CCO)c2ccccc21 [Example 48, 2-((E)-2-((E)-2-chloro-3-(2-((E)-3,3-dimethyl-1-(6-oxo-6-phenoxyhexyl)indolin-2-ylidene)ethenyl)cyclohex-1-en-1-yl)ethenyl)-1-(2-hydroxyethyl)-3,3-dimethyl-3H-indol-1-ium Formate]",,2.02,
"CC[N+]1=C(/C=C/C2=C(Cl)C(=C/C=C3/N(CCCCCC(=O)NCCCCCNC(=O)CCCCCN4/C(=C/C=C5\CCCC(/C=C/C6=[N+](CC)c7ccccc7C6(C)C)=C5Cl)C(C)(C)c5ccccc54)c4ccccc4C3(C)C)/CCC2)C(C)(C)c2ccccc21 [Example 77, 2,2′-((1E,1′E)-((3E,3′E)-(((2E,2′E)-((pentane-1,5-diylbis(azanediyl))bis(6-oxohexane-6,1-diyl))bis(3,3-dimethylindolin-1-yl-2-ylidene))bis(ethane-2,1-diylidene))bis(2-chlorocyclohex-1-en-1-yl-3-ylidene))bis(ethene-2,1-diyl))bis(1-ethyl-3,3-dimethyl-3H-indol-1-ium) Chloride]",794.5 nm,4.344,
"C[N+]1=C(/C=C/C2=C(Cl)C(=C/C=C3/N(CCOCCOCCC(=O)Oc4ccccc4)c4ccccc4C3(C)C)/CCC2)C(C)(C)c2ccccc21 [Example 51, 2-((E)-2-((E)-2-chloro-3-(2-((E)-3,3-dimethyl-1-(2-(2-(3-oxo-3-phenoxypropoxy)ethoxy)ethyl)indolin-2-ylidene)ethenyl)cyclohex-1-en-1-yl)ethenyl)-1,3,3-trimethyl-3H-indol-1-ium Formate]",,1.9,
CC1(C)C(/C=C/C2=C(Oc3ccc(S(=O)(=O)O)cc3)C(=C/C=C3/N(CCCCCC(=O)Oc4ccccc4)c4ccccc4C3(C)C)/C[N+](C)(C)C2)=[N+](CCCCCC(=O)Oc2ccccc2)c2ccccc21 [Example 103],757.5 nm,2.483,
CC[N+]1=C(/C=C/C2=C(Cl)C(=C/C=C3/N(CCCCCC(=O)O)c4ccccc4C3(C)C)/CCC2)C(C)(C)c2cc(C(=O)O)ccc21.[Cl-] [Example 92],,1.49,
"C[n+]1cccc2c1N=C(/C=C/C1=C(Cl)C(=C/C=C3/N(CCCCCC(=O)O)c4ccccc4C3(C)C)/CCC1)C2(C)C [Example 64, 2-((E)-2-((E)-3-(2-((E)-1-(5-carboxypentyl)-3,3-dimethylindolin-2-ylidene)ethenyl)-2-chlorocyclohex-1-en-1-yl)ethenyl)-3,3,7-trimethyl-3H-pyrrolo[2,3-b]pyridin-7-ium Chloride]",,0.5,
"CC[N+]1=C(/C=C/C2=C(Cl)C(=C/C=C3/N(CCOCCC(=O)Oc4ccccc4)c4ccccc4C3(C)C)/CC2)C(C)(C)c2ccccc21 [Example 21, 2-((E)-2-((E)-2-chloro-3-(2-((E)-3,3-dimethyl-1-(2-(3-oxo-3-phenoxypropoxy)ethyl)indol-2-methylene)ethylidene)cyclopent-1-en-1-yl)ethenyl)-1-ethyl-3,3-dimethyl-3H-indol-1-ium Trifluoroacetate]",821 nm,2.466,
"CCN1/C(=C/C=C2\CCCC(/C=C/C3=[N+](CC)c4ccccc4C3(C)C)=C2NCCCCCC(=O)O)C(C)(C)c2ccccc21 [Example 13, 2-((E)-2-((E)-2-((5-carboxypentyl)amino)-3-(2-((E)-1-ethyl-3,3-dimethylindolin-2-ylidene)ethenyl)cyclohex-1-en-1-yl)ethenyl)-1-ethyl-3,3-dimethyl-3H-indol-1-ium Formate]",632 nm,0.68,
"C[N+]1=C(/C=C/C2=C(Cl)C(=C/C=C3/N(CCOCCOCCOCc4ccccc4)c4ccccc4C3(C)C)/CC2)C(C)(C)c2ccccc21 [Example 55, 2-((E)-2-((E)-3-(2-((E)-1-(2-(2-(2-(benzyloxy)ethoxy)ethoxy)ethyl)-3,3-dimethylindolin-2-ylidene)ethenyl)-2-chlorocyclopent-1-en-1-yl)ethenyl)-1,3,3-trimethyl-3H-indol-1-ium Formate]",,3.48,
"C[N+]1=C(/C=C/C2=C(Cl)C(=C/C=C3/N(CCCCCC(=O)O)c4ccccc4C3(C)C)/CCC2)C(C)(C)c2cc(C(=O)O)ccc21 [Example 119, 5-carboxy-2-((E)-2-((E)-3-(2-((E)-1-(5-carboxypentyl)-3,3-dimethylindolin-2-ylidene)ethenyl)-2-chlorocyclohex-1-en-1-yl)ethenyl)-1,3,3-trimethyl-3H-indol-1-ium 2,2,2-trifluoroacetate]",,1.52,
